The record followed here is patent publication US20260166128A1, “HUMAN AMYLIN ANALOG, AND DERIVATIVE THEREOF AND USE THEREOF” (priority 2022, published 2026).

Test [1] deals with T1, human amylin receptor (Homo sapiens, UniProt O60896+P30988).
T1 construct: host or cells: CHO-K1/Ga15/AMY3 cells, further stably transfected with a CRE-luciferase plasmid
T1 sequence (P30988 25-474): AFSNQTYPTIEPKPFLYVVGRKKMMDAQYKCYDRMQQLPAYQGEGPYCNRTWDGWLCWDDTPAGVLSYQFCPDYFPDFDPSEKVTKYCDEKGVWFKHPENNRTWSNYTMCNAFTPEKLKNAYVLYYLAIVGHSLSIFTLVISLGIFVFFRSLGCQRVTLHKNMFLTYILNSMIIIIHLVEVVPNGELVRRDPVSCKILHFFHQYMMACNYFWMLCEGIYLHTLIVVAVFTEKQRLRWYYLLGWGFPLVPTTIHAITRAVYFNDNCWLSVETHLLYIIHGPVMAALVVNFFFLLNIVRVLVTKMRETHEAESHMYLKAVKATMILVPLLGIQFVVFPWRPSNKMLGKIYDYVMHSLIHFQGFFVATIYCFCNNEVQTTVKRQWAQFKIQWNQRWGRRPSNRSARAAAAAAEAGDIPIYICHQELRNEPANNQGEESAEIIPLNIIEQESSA
T1 sequence (O60896 24-148 partner): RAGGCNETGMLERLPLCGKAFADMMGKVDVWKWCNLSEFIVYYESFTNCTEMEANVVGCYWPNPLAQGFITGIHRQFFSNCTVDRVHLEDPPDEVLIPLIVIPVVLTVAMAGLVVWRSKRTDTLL
Briefly: Luciferase assay of amylin derivatives in amylin receptor/CRE-luc CHO cell line. The format is cell-based. As to conditions: CHO-K1/Ga15/AMY3 CRE-luc cells, 24 hours incubation, F12 medium containing 10% FBS; read-out: EC50.
Description: The experiment was intended to detect the activity or efficacy of the amylin derivatives on a human amylin receptor in vitro by luciferase assay.
50 μL of growth medium (F12 medium containing 10% FBS) was added into each well of a white 96-well plate, and the stably transfected amylin/CRE-lue CHO cells were inoculated into the white 96-well plate at a density of about 20,000 cells/well for activity determination.

Test [2] is described as follows: Weight loss efficacy of derivatives in SD rats (Example 5). Conditions: experimental group B, subcutaneous, 30 nmol/kg. Format: in vivo, SD (Sprague Dawley) rats. The text has this:
SD (Sprague Dawley) rats weighing 200 g to 250 g were selected for this experimental study. Before the experiment, the rats arrived for at least 10 days to 14 days to adapt to the experimental environment. During this period, the rats were fed for two weeks in a reversed light/dark stage (meaning that the light was turned off during the day and turned on during the night) after arrival, and were fed separately in the first week of arrival to ensure accurate data and high test sensitivity, and the rats were free to obtain food and water during the whole adaptation period and experimental period. There were an experimental group [NT]5 and A6, and an experimental group B: B1, B2, B3, B4 and B5, with 5 to 8 rats in each treatment group of the derivative, and the rats in each group were subcutaneously administered with a derivative or a solvent by a dosage of 30 nmol/kg. The administration time of each group was recorded. After administration, the rats were put back into their cages in which the rats could get food and water. Food consumption and weight changes of the rats were recorded every 24 hours by online recording or manual recording. Weight and food intake changes of the SD rats in each group were as shown in FIG. 2A to FIG. 2D, Table 9 and Table 10.

pEC50: −log10 of the molar value. Numbered stars: 1 amine (or outer) side, 2 acyl side, 3 side chain; on linkers, the order of the positions; unused ones are H or OH. Bridge positions count the residues as written; N and C are the ends. Square brackets hold non-standard residues; d marks the D form. Peptide text beside a SMILES is read from it. * marks the point of attachment. C20 diacid = O=C(O)CCCCCCCCCCCCCCCCCCC(=O)*; γGlu = O=C(O)[C@H](CCC(=O)[*:2])N[*:1]; Hyp = O=C(O)[C@@H]1C[C@@H](O)CN1

The pEC50 is the EC50 on a negative log10 scale, so that one unit is a factor of ten. For `CC[C@H](C)[C@H](NC(=O)[C@@H]1CCCN1C(=O)[C@H](CCCNC(=N)N)NC(=O)[C@H](CC(C)C)NC(=O)[C@H](CC(N)=O)NC(=O)[C@H](CC(N)=O)NC(=O)[C@H](CO)NC(=O)[C@H](CO)NC(=O)[C@H](Cc1c[nH]cn1)NC(=O)[C@H](CCCNC(=N)N)NC(=O)[C@H](CC(C)C)NC(=O)[C@H](Cc1ccccc1)NC(=O)[C@H](CC(=O)O)NC(=O)[C@H](C)NC(=O)[C@H](CC(C)C)NC(=O)[C@H](CCCNC(=N)N)NC(=O)[C@H](CCC(N)=O)NC(=O)[C@@H](NC(=O)[C@H](C)NC(=O)[C@@H]1CSSC[C@H](NC(=O)[C@H](CCCCN)NC(=O)CC[C@H](NC(=O)CCCCCCCCCCCCCCCCCCC(=O)O)C(=O)O)C(=O)N[C@@H](CC(N)=O)C(=O)N[C@@H]([C@@H](C)O)C(=O)N[C@@H](C)C(=O)N[C@@H]([C@@H](C)O)C(=O)N1)[C@@H](C)O)C(=O)N[C@@H](CC(C)C)C(=O)N1CCC[C@H]1C(=O)N1CCC[C@H]1C(=O)N[C@H](C(=O)N[C@@H](CC(N)=O)C(=O)N[C@H](C(=O)NCC(=O)N[C@@H](CO)C(=O)N[C@@H](CC(N)=O)C(=O)N[C@H](C(=O)N1C[C@H](O)C[C@H]1C(N)=O)[C@@H](C)O)C(C)C)[C@@H](C)O` [PD158] ({C20 diacid-γGlu}-KCNTATCATQRLADFLRHSSNNLRPILPPTNVGSNT[Hyp]-NH2; disulfide 2-7 (inferred)), the pEC50 in test [1] is 10.66. For the same compound, the “Weight change rate at 48th hour” value in test [2] is −8.37.
Turning to `CC[C@H](C)[C@H](NC(=O)[C@@H]1CCCN1C(=O)[C@H](CCCCN)NC(=O)[C@H](CC(C)C)NC(=O)[C@H](CC(N)=O)NC(=O)[C@H](CC(N)=O)NC(=O)[C@H](CO)NC(=O)[C@H](CO)NC(=O)[C@H](Cc1c[nH]cn1)NC(=O)[C@H](CCCNC(=N)N)NC(=O)[C@H](CC(C)C)NC(=O)[C@H](Cc1ccccc1)NC(=O)[C@H](CC(=O)O)NC(=O)[C@H](C)NC(=O)[C@H](CC(C)C)NC(=O)[C@H](CCCNC(=N)N)NC(=O)[C@H](CCC(N)=O)NC(=O)[C@@H](NC(=O)[C@H](C)NC(=O)[C@@H]1CSSC[C@H](NC(=O)[C@H](CCCCN)NC(=O)CC[C@H](NC(=O)CCCCCCCCCCCCCCCCCCC(=O)O)C(=O)O)C(=O)N[C@@H](CC(N)=O)C(=O)N[C@@H]([C@@H](C)O)C(=O)N[C@@H](C)C(=O)N[C@@H]([C@@H](C)O)C(=O)N1)[C@@H](C)O)C(=O)N[C@@H](CC(C)C)C(=O)N1CCC[C@H]1C(=O)N1CCC[C@H]1C(=O)N[C@H](C(=O)N[C@@H](CC(N)=O)C(=O)N[C@H](C(=O)NCC(=O)N[C@@H](CO)C(=O)N[C@@H](CC(N)=O)C(=O)N[C@H](C(=O)N1CCC[C@H]1C(N)=O)[C@@H](C)O)C(C)C)[C@@H](C)O` [PD160] ({C20 diacid-γGlu}-KCNTATCATQRLADFLRHSSNNLKPILPPTNVGSNTP-NH2; disulfide 2-7 (inferred)), the pEC50 in test [1] was 10.46. Moreover, in test [2], the “Weight change rate at 48th hour” value was −7.87.
In the case of `CC[C@H](C)[C@H](NC(=O)[C@@H]1CCCN1C(=O)[C@H](CCCNC(=N)N)NC(=O)[C@H](CC(C)C)NC(=O)[C@H](CC(N)=O)NC(=O)[C@H](CC(N)=O)NC(=O)[C@H](CO)NC(=O)[C@H](CO)NC(=O)[C@H](Cc1c[nH]cn1)NC(=O)[C@H](CCCNC(=N)N)NC(=O)[C@H](CC(C)C)NC(=O)[C@H](Cc1ccccc1)NC(=O)[C@H](CC(=O)O)NC(=O)[C@H](C)NC(=O)[C@H](CC(C)C)NC(=O)[C@H](CCCNC(=N)N)NC(=O)[C@H](CCC(N)=O)NC(=O)[C@@H](NC(=O)[C@H](C)NC(=O)[C@@H]1CSSC[C@H](NC(=O)[C@H](CCCCN)NC(=O)CC[C@H](NC(=O)CCCCCCCCCCCCCCCCCCC(=O)O)C(=O)O)C(=O)N[C@@H](CC(N)=O)C(=O)N[C@@H]([C@@H](C)O)C(=O)N[C@@H](C)C(=O)N[C@@H]([C@@H](C)O)C(=O)N1)[C@@H](C)O)C(=O)N[C@@H](CC(C)C)C(=O)N1CCC[C@H]1C(=O)N1CCC[C@H]1C(=O)N[C@H](C(=O)N[C@@H](CC(N)=O)C(=O)N[C@H](C(=O)NCC(=O)N[C@@H](CO)C(=O)N[C@@H](CC(N)=O)C(=O)N[C@H](C(=O)N1CCC[C@H]1C(N)=O)[C@@H](C)O)C(C)C)[C@@H](C)O` [PD161] ({C20 diacid-γGlu}-KCNTATCATQRLADFLRHSSNNLRPILPPTNVGSNTP-NH2; disulfide 2-7 (inferred)), in test [1], the pEC50 was 10.59. Further, the “Weight change rate at 48th hour” value in test [2] is on record as −7.81.
